{"source": "paper PMC4106781", "about": "“Efficacy of Selective PDE4D Negative Allosteric Modulators in the Object Retrieval Task in Female Cynomolgus Monkeys (Macaca fascicularis)” (PLoS ONE, 2014)", "key": {"[1]": {"system": "female Cynomolgus monkeys", "assay": "Object retrieval (OR) detour task", "assay_type": "in vivo, Cynomolgus macaques (Macaca fascicularis)", "from_the_text": "A total of n = 8 female Cynomolgus monkeys aged 4–6 years were trained in the OR task and were used for these studies, following a cross-over design. Animals were trained to ensure adequate and stable performance during the dosing studies. Animals were individually housed prior to the initiation of the study. Animals were habituated to the oral gavage method using positive reinforcement techniques for a minimum of 2 weeks prior to the initiation of OR testing to mitigate any adverse impact on behaviour. To ensure accurate dosing each individual was momentarily restrained in a ‘standing’ type primate chair to allow easy and gentle passage of the gavage tube. The oral doses were administered in a dose volume of 1.0 mL/Kg which was followed with 5 mL of purified water to ensure no residual compound formulation remained in the gavage tube. During dose habituation and the study the same study personnel administered the compounds and thus a non-stressful, familiar routine for the animals was achieved.\nThe OR task, [55] requires the subject to retrieve a food reward from a clear acrylic box (dimensions = 5×5×5 cm) with one open side which is positioned in front of the subject on a metal holder fixed to the outside of the home cage. The cube is presented to the subject with the open side facing left, right, or toward the monkey in a randomised set list of easy versus difficult trials. Food rewards (raisins or cubes of fruit pieces 1–2 cm^2) were placed on the outer edge, inner edge, line of sight (all easy), or deep within the box (difficult). Each test session consisted of 17 trials, with an initial Easy phase of 3 easy trials followed by a Random phase of 9 trials (4 difficult and 5 easy, presented randomly for each session), followed by a Difficult phase of 4 difficult trials and finally one final Easy Trial (Figure 2A). The final easy trial was included for reward purposes and although the number of attempts was recorded the data were not used for analysis. For successive test sessions, the subject was presented with the trials in an order exactly the reverse of the previous session (previous left side exposure became right side exposure and vice-versa). Individual trials within one OR session were terminated if there were no reaches or successful retrieval of the reward within 2 minutes by the subject. The acrylic box was cleaned between trials to minimize cues which may influence subsequent task performance through easier identification of the cube entrance.\nAnimals were habituated to the metal frame prior to introducing the OR cube. During training, the animals were exposed to the OR trials as depicted in Figure 2A for 4 occasions (twice a week- OR trial # T1-T4 – data not shown). Importantly, during this period of training, all animals acquired the rewards even after an incorrect first reach. OR evaluations were then subsequently conducted once per week to discourage learning and thus ensure no performance shift during the pharmacology study (Figure 2B). […]\nBaseline performance was targeted to be an average, stable performance of >50% correct responses in the easy tasks, with less than 40% correct responses in the difficult tasks (Figure 2B). All animals evaluated during this phase met these criteria by the end of the training session, with the exception of one animal, which was a baseline ‘high performer’ on difficult trials (Animal 3939). […]"}, "[2]": {"system": "female Cynomolgus monkeys", "assay": "Clinical observations (retching, emesis, salivation) during OR and PK studies", "assay_type": "in vivo, Cynomolgus macaques (Macaca fascicularis)", "conditions": "0.03 mg/kg IM; one animal (5B09), 20 minutes post dose", "description": "• Week 1: Animals were habituated to intramuscular injections daily using the ‘rolipram’ vehicle formulation (10% solutol (w/v), 90% saline vehicle in a 0.1 mL/Kg dose volume) Monday through Friday, and a single baseline OR trial evaluation was performed on Wednesday (OR4) (Figure 2A). Animals were dosed with vehicle 30 minutes prior to this behavioural evaluation. • Weeks 2 to 5: Evaluation of rolipram in OR task. Following the stable baseline performance establishment (OR1 – 4), all animals were administered the 3 doses of rolipram (0.003, 0.01 and 0.03 mg/Kg) or vehicle intramuscularly 30 minutes before evaluation on the OR task, every Wednesday through Weeks 2–5 (OR5-8). All animals were dosed with vehicle on the preceding Monday and Tuesday to keep them habituated to the injections and avoid any Pavlovian conditioning to any pro-emetic effects of treatment, although no OR testing was carried out on those days. Treatment was administered at approximately the same time each day and administered via the intramuscular route at a volume of 0.1 mL/kg. […]\nAnimals were closely monitored for the duration of the study, and were videotaped during task performance. Body weights were monitored weekly. Clinical observations were recorded prior to dose administration and after the completion of each OR task. […]"}, "NHPs": {"system": "NHPs", "conditions": "cited from earlier work"}, "[3]": {"conditions": "repeat measures ANOVA, dose group as factor"}}}
{"smiles": "COc1ccc(C2CNC(=O)C2)cc1OC1CCCC1", "note": "(stereo not drawn) [rolipram, Rolipram]", "values": [{"measurement": "mean percent correct first reaches, difficult trials (effect vs vehicle)", "setting": "[1]; 0.01 mg/kg IM", "result": "significance was not observed"}, {"measurement": "mean percent correct first reaches, difficult trials", "setting": "[1]; 0.03 mg/Kg IM, 30 min before OR, mean ± SEM, vehicle 22±8%", "result": "42±8", "unit": "%"}, {"measurement": "mean percent correct first reach, easy level trials (effect of dosing)", "setting": "[1]; [3]", "result": "No significant improvement"}, {"measurement": "number of barrier reaches, difficult trials (effect of dosing)", "setting": "[1]; [3]", "result": "No significant change"}, {"measurement": "total number of reaches, difficult trials (effect of dosing)", "setting": "[1]; [3]", "result": "No significant change"}, {"measurement": "adverse reactions", "setting": "[2]", "result": "Retching and severe salivation"}, {"measurement": "retching", "setting": "NHPs; 0.05 mg/kg IM, separate study, ref Maccine, personal communication", "result": "all animals retching"}, {"measurement": "emesis", "setting": "NHPs; 0.06 mg/kg", "result": "emesis"}, {"measurement": "emesis (monkeys affected)", "setting": "NHPs; 0.1 mg/kg", "result": "12 of 14"}]}
